Where “and” joins values, the source holds several entries; their conditions need not be identical. Identical values can stand only once. Entries after “also recorded” stand apart in the source; their conditions may differ.

The text below walks through data of PMC8508960, “Ruthenium Half-Sandwich Type Complexes with Bidentate Monosaccharide Ligands Show Antineoplastic Activity in Ovarian Cancer Cell Models through Reactive Oxygen Species Production” (International Journal of Molecular Sciences, 2021).

The test system of series [1] is A2780 human ovarian carcinoma cells. The series is described as follows: SRB proliferation assay (48 h) on A2780 cells. Format: cell-based. As to conditions: for cytostatic activity in long-term SRB assay (in words): A2780 cells, 100–0.0017 µM; for A2780 Hill Slope / IC50: SRB, nonlinear regression, N/A = could not be calculated/had no effect. As for the experimental part: (§1) Cells were cultured under standard cell culture conditions, 37 °C, 5% CO2, humidified atmosphere. A2780 cells were cultured in RMPI 1640 medium supplemented with 10% fetal calf serum, 2 mM glutamine, and 1% penicillin–streptomycin (Sigma-Aldrich). ID8 cells were cultured in high-glucose DMEM (4.5 g/L glucose) supplemented with 4% fetal calf serum, 2 mM glutamine, 1% penicillin–streptomycin (Sigma-Aldrich), and 1% ITS supplement (Sigma-Aldrich I3146). U251 cells were maintained in MEM (Sigma-Aldrich), 10% fetal bovine serum (Sigma-Aldrich), 1% penicillin/streptomycin (Invitrogene), and 2 mM glutamine. MCF7 cells were maintained in MEM (Sigma-Aldrich), 10% fetal bovine serum (Sigma-Aldrich), 1% penicillin/streptomycin (Invitrogen, Waltham, MA, USA), and 2 mM glutamine. Capan2 cells were maintained in MEM (Sigma-Aldrich), 10% fetal bovine serum (Sigma-Aldrich), 1% penicillin/streptomycin (Invitrogen), and 2 mM glutamine. Human primary dermal fibroblasts were cultured in low-glucose DMEM (1 g/L glucose) supplemented with 20% fetal calf serum, 2 mM glutamine, and 1% penicillin–streptomycin (Sigma-Aldrich).
(§2) The SRB accumulation assay assesses protein content in a sample, and it was used to assess cell proliferation. The SRB accumulation assay was performed similarly to [68]. Cells were seeded in 96-well plates. The next day, cells were treated with the compounds for 48 h in the concentrations indicated in a cell incubator. At the end of treatment, cells were fixed with 10% trichloroacetic acid (TCA). Fixed cells were stained with SRB (0.4% m/v dissolved in 1% acetic acid) for 60 min. Fixed cells were washed in 1% acetic acid three times; acetic acid was removed, and cells were left to dry. Protein-bound SRB was released by adding 100 µL of 10 mM Tris base. Plates were measured in a plate photometer (Thermo Scientific Multiscan GO spectrophotometer, Waltham, MA, USA) at 540 nm. On each plate, wells were designed to contain untreated cells. In calculations, the readings for these wells were considered as 1, and all readings were expressed relative to these values.
(§3) Statistical analysis was performed using Graphpad Prism version 8.0.1. Values were tested for normal distribution using the D’Agostino and Pearson normality test. When necessary, values were log-normalized or were normalized using the Box–Cox normalization method, as indicated in the figure captions. Nonlinear regression was performed using the built-in “[Inhibitor] vs. response—variable slope (four parameters), least square fit” utility of Graphpad that yielded IC50 and Hill slope values.

Series [2] relates to human primary skin fibroblasts. The series is described as follows: SRB proliferation assay (48 h) on primary fibroblasts. Format: cell-based. As for the experimental part: as §1, §2, §3
(In SRB staining, fixed cells bind dye roughly in proportion to their protein.)

The next series has as its system ID8 cells. The series can be described thus: SRB proliferation assay (48 h) on ID8 cells. Format: cell-based. As to conditions: for ID8 Hill Slope / IC50: SRB, nonlinear regression, N/A = could not be calculated/had no effect; for cytostatic activity in long-term SRB assay (in words): ID8 cells. As for the experimental part:
as §1, §2, §3

Series [3] has as its system A2780 human ovarian carcinoma cells. The series is described as follows: MTT reduction assay (4 h, rapid toxicity) on A2780 cells. Format: cell-based. As for the experimental part:
as §1
The MTT reduction assay assesses the activity of mitochondrial complex I, and it was used to assess rapid toxicity. The MTT reduction assay was performed similarly to [67]. Cells were seeded in 96-well plates. The next day, cells were treated with the compounds for 4 h in the concentrations indicated in a cell incubator. At the end of treatment, MTT was added in 0.5 mg/mL final concentration, and cells were incubated at 37 °C in a cell incubator. Then, culture media was removed, the reduced MTT dye was resolved in dimethyl sulfoxide (DMSO), and plates were measured in a plate photometer (Thermo Scientific Multiscan GO spectrophotometer, Waltham, MA, USA) at 540 nm. On each plate, wells were designed to contain untreated/vehicle-treated cells. In calculations, the readings for these wells were considered as 1, and all readings were expressed relative to these values.
For orientation: Formazan colour is commonly taken as a measure of viable cells.

For another series, the system named is A2780 cells. The series is described as follows: SRB assay on A2780 cells with or without 3 µM rucaparib. Format: cell-based, human. The settings on record: 48 h, 3 µM. As for the experimental part: as §2, §3
The mark [4] stands for this setting: SRB, nonlinear regression, N/A = could not be calculated/had no effect.

For the compound `CC(=O)OCC1OC(c2n[n+]3c(o2)-c2cccc[n+]2[Ru-]3[Cl])C(OC(C)=O)C(OC(C)=O)C1OC(C)=O.Cc1ccc(C(C)C)cc1.F[P-](F)(F)(F)(F)F` (mixture of isomers) [Ru-5], in series [1], the “cytostatic activity in long-term SRB assay (in words)” value (“cytostatic activity” below) is listed as “abrogated the inhibitory activity”.
In the case of `Cc1ccc(C(C)C)cc1.F[P-](F)(F)(F)(F)F.OCC1OC(c2nnc(-c3ccccn3)o2)C(O)C(O)C1O.[Cl][Ru+]` (mixture of isomers) [Ru-10], the “cytostatic activity” value in series [1] is listed as “abrogated the inhibitory activity”.
For the compound `N.N.O=C([O-])C1(C(=O)[O-])CCC1.[Pt+2]` [Carboplatin, carboplatin, reference compound], the “effect in long-term SRB assay (in words)” value in series [2] (primary human fibroblasts) is “no effect”. Besides, in series [1], the “A2780 Hill Slope” value is 1.02 and the half-maximal inhibitory concentration (IC50) was 28 µM. In the series on ID8 cells, the “ID8 Hill Slope” value was 0.62.
In the case of `N.N.[Cl][Pt][Cl]` [Cisplatin, cisplatin, reference compound], the “Fibroblast Hill Slope” value in series [2] (setting [4]) was 1.53. In series [2] (SRB, nonlinear regression, N/A = could not be calculated/had no effect, read-out: Fibroblast IC50), the half-maximal inhibitory concentration (IC50) is 11.9 µM. Further, in series [2] (primary human fibroblasts, above 10 µM), the “effect in SRB assay above 10 µM” value is given as “cytostatic”. Also, in series [1], the “A2780 Hill Slope” value is 1.20 and the IC50 is 1.21 µM. In the series on ID8 cells, the half-inhibitory concentration (IC50) is 10.8 µM and the “ID8 Hill Slope” value is listed as 0.99.
As for `O=C(OC[C@H]1O[C@@H](n2cc(-c3ccccn3)nn2)[C@H](OC(=O)c2ccccc2)[C@@H](OC(=O)c2ccccc2)[C@@H]1OC(=O)c1ccccc1)c1ccccc1` [Complex L-2a, 1-(2′,3′,4′,6′-Tetra-O-benzoyl-β-D-glucopyranosyl)-4-(pyridin-2-yl)-1,2,3-triazole], in series [2] (primary human fibroblasts), the “effect in long-term SRB assay (in words)” value is recorded as “no effect”. In addition, the “cytostatic activity” value in series [1] was “no biological activity; also recorded: none of the corresponding ligands (L-2a, L-4, L-6, and L-8) had cytostatic properties”; in the series on ID8 cells, “none of the corresponding ligands (L-2a, L-4, L-6, and L-8) had cytostatic properties”. Besides, the “effect in short-term MTT assay, rapid toxicity (in words)” value (from here on “effect in short-term MTT assay”) in series [3] was “no biological activity”.
In the case of `O=C(OC[C@H]1O[C@@H](c2nnc(-c3ccccn3)o2)[C@H](OC(=O)c2ccccc2)[C@@H](OC(=O)c2ccccc2)[C@@H]1OC(=O)c1ccccc1)c1ccccc1` [Complex L-4, 2-(2′,3′,4′,6′-Tetra-O-benzoyl-β-D-glucopyranosyl)-5-(pyridin-2-yl)-1,3,4-oxadiazole], the “effect in long-term SRB assay (in words)” value in series [2] (primary human fibroblasts) is reported as “no effect”. For the same compound, the “cytostatic activity” value in series [1] was “no biological activity; also recorded: none of the corresponding ligands (L-2a, L-4, L-6, and L-8) had cytostatic properties”; in the series with ID8 cells it was “none of the corresponding ligands (L-2a, L-4, L-6, and L-8) had cytostatic properties”. Moreover, the “effect in short-term MTT assay” value in series [3] is given as “no biological activity”.
Regarding `O=C(O[C@@H]1[C@@H](OC(=O)c2ccccc2)[C@H](c2nnc(-c3ccccn3)o2)OC[C@H]1OC(=O)c1ccccc1)c1ccccc1` [Complex L-6, 2-(2′,3′,4′-Tri-O-benzoyl-β-D-xylopyranosyl)-5-(pyridin-2-yl)-1,3,4-oxadiazole], in series [2] (primary human fibroblasts), the “effect in long-term SRB assay (in words)” value is recorded as “no effect”. Also, the “cytostatic activity” value was “no biological activity; also recorded: none of the corresponding ligands (L-2a, L-4, L-6, and L-8) had cytostatic properties” in series [1]; “none of the corresponding ligands (L-2a, L-4, L-6, and L-8) had cytostatic properties” in the series with ID8 cells. Moreover, in series [3], the “effect in short-term MTT assay” value is “no biological activity”.
`O=C(OC[C@H]1O[C@@H](c2nnc(-c3ccccn3)o2)[C@H](OC(=O)c2ccccc2)[C@@H](OC(=O)c2ccccc2)[C@H]1OC(=O)c1ccccc1)c1ccccc1` [Complex L-8, 2-(2′,3′,4′,6′-Tetra-O-benzoyl-β-D-galactopyranosyl)-5-(pyridin-2-yl)-1,3,4-oxadiazole]: the “effect in long-term SRB assay (in words)” value in series [2] (primary human fibroblasts) was “no effect”. Besides, the “cytostatic activity” value in series [1] was “no biological activity; also recorded: none of the corresponding ligands (L-2a, L-4, L-6, and L-8) had cytostatic properties”; in the series on ID8 cells, “none of the corresponding ligands (L-2a, L-4, L-6, and L-8) had cytostatic properties”. Further, the “effect in short-term MTT assay” value in series [3] is recorded as “no biological activity”.
Regarding `c1ccc(-n2cc(-c3ccccn3)nn2)cc1` [Complex L-13, 1-phenyl-4-(pyridine-2-yl)-1,2,3-triazole], the “cytostatic activity” value in series [1] is listed as “Neither of the free ligands, L-13 or L-14, had cytostatic activity”.
Turning to `c1ccc(-c2nnc(-c3ccccn3)o2)cc1` [Complex L-14, 2-phenyl-5-(pyridine-2-yl)-1,3,4-oxadiazole], in series [1], the “cytostatic activity” value is “Neither of the free ligands, L-13 or L-14, had cytostatic activity”.
In the case of `O=C1[O][Pt]2([NH][C@@H]3CCCC[C@H]3[NH]2)[O]C1=O` [Oxaliplatin, oxaliplatin, reference compound], in series [2] (setting [4]), the “Fibroblast Hill Slope” value is 0.37. In series [2] (primary human fibroblasts), the “effect in long-term SRB assay (in words)” value was “no effect”. Besides, in series [1], the “A2780 Hill Slope” value is 1.27 and the IC50 was 0.12 µM. Also, in the series on ID8 cells, the half-inhibitory concentration (IC50) is 4.59 µM and the “ID8 Hill Slope” value was 1.58.
With `Cc1ccc(C(C)C)cc1.F[P-](F)(F)(F)(F)F.[Cl][Ru+].c1ccc(-n2cc(-c3ccccn3)nn2)cc1` [Ru-13], in series [1], the “cytostatic activity” value is “lowered the cytostatic capacity”; the “A2780 Hill Slope” value is 1.5 and 1.57; the concentration for half-maximal inhibition (IC50) is 12 µM.
For the compound `Cc1ccc(C(C)C)cc1.F[P-](F)(F)(F)(F)F.[Cl][Ru+].c1ccc(-c2nnc(-c3ccccn3)o2)cc1` [Ru-14], in series [1], the “cytostatic activity” value is listed as “no cytostatic activity; also recorded: fully abrogated it” and the “A2780 Hill Slope” value is recorded as 0.77.
Consider `CNCc1ccc(-c2[nH]c3cc(F)cc4c3c2CCNC4=O)cc1` [Rucaparib, rucaparib, reference compound], for which the “cell proliferation (in words)” value in the series on A2780 cells is given as “reduced cell proliferation”.

The IC50 is the concentration needed to halve the response being measured.
